The subject of data set [1] is ventricular extrasystoles. As to the kind of experiment: Anti-arhythmic action in the rat (aconitine-induced ventricular extrasystoles). The note with it: read-out: Percentage of protection (percentage increase in the aconitine dose necessary to initiate the ventricular extrasystoles); for change in vivo at 5 mg/kg / change in vivo at 1 mg/kg: iv; for change in vivo at 25 mg/kg: po, 1 h. The class given is in vivo. The protocol: Male rats weighing 300-350 g, anaesthetized by intraperitoneal route with 1.20 g/kg of urethane, were tracheotomized and subjectd to artificial respiration (40-50 insufflations of 3 ml/minute). Needles were implanted under the skin to record the electrocardiogram of the rats on reception of the DII signal. The test products were administered intravenously or orally. After five minutes in the case of intravenous administration and one hour in the case of oral administration, the jugular vein of the rats was perfused with 10 micrograms/minutes under 0.21 ml of an aconitine solution and the time taken for the first ventricular extrasystoles to appear was noted. The amount of aconitine perfused was calculated, then expressed as a function of the body weight of the animal.
The percentage increase in the aconitine dose necessary to initiate the ventricular extrasystoles after treatment was calculated relative to the control animals.

A further data set deals with caudal artery. As to the kind of experiment: Test for anti-calcic activity in vitro, isolated caudal artery of the rat (contraction induced by calcium chloride). The format is cell-based. The conditions noted are these: caudal artery rings of Wistar rats, depolarizing solution KCl 100 mM, CaCl2 2.5 mM, phentolamine 10^-5 M, 37° C., read-out: IC50 (concentration which inhibited by 50% the contraction induced by calcium chloride). As for the experimental part:
Isolated caudal artery of the rat.
When the contractile responses became reproducible, the test product was added in increasing concentrations 15 minutes before each contraction.

For another data set, the system named is blood-platelets. As to the kind of experiment: Blood-platelet aggregation, in vitro, on plasma rich in blood-platelets (PRP). The class given is cell-based. The note with it: Oryctolagus cuniculus, 2 min, rabbit PRP, 2 minutes incubation. The text has this: 3) Test for the Activity of Anti-Aggregation of Blood-Platelets. Blood-Platelet Aggregation, in Vitro, on Plasma Rich in Blood-Platelets (PRP)
Measurement of blood-platelet aggregation was made according to the turbidimetric method of Born et al 1963, J. Physiol., Vol. 168, p. 178. Rabbit's blood was removed on Na citrate at 3.2% of cardiac puncture and the plasma rich in blood-platelets was obtained by centrifuging and adjustment of the number of blood-platelets to […]. The aggregation was induced by collagen (40 micrograms per ml of PRP) or PAF acether (0.05 micromoles per liter of PRP). The test compounds were incubated at different concentrations in the PRP 2 minutes before the aggregating agent. The results are expressed in IC50 (concentration inhibiting the aggregation by 50% relative to the control curves).

Another data set concerns mouse. In words: Acute toxicity, oral, mouse. The format is in vivo. The protocol:
The lethal doses LD0 of the various compounds tested were evaluated after oral administration to a mouse. […]

Where [2] appears, read: PAF acether 0.05 micromoles per liter of PRP, read-out: IC50, induction by PAF ACETHER (concentration inhibiting the aggregation by 50%).
Where [3] appears, read: collagen 40 micrograms per ml of PRP, read-out: IC50, induction by COLLAGEN (concentration inhibiting the aggregation by 50%).

Like-named read-outs stand apart in the source and are kept apart here.

Here are results for 22 compounds from patent US5086070A, “4-benzyl-1H-indoles and anti-arrthymic use thereof” (Roussel Uclaf, priority 1989, dated 1992).

`CC(C)N(CC(O)COc1ccccc1C(=O)c1cccc2[nH]ccc12)C(C)C` (racemic) [Example 18, (±) [2-[3-[[bis-1-methylethyl)-amino]-2-hydroxy-propoxy]-phenyl]-(1H-indol-4-yl) methanone]: in data set [1], the change in vivo at 5 mg/kg worked out at 135%. Further, the IC50 in the data set on caudal artery was 7.2 µM.
With `CC(C)(C)NCCOc1ccccc1C(=O)c1cccc2[nH]ccc12` [Example 16, [2-[2-[(1,1-dimethylethyl)-amino]-ethoxy]-phenyl]-(1H-indol-4-yl)-methanone], the IC50 in the data set with blood-platelets (setting [2]) is 100 µM; in the data set on blood-platelets (setting [3]), 57 µM; with caudal artery it was 1.1 µM.
Turning to `CC(C)(C)NCCCOc1ccc(C(=O)c2cccc3[nH]ccc23)cc1` [Example 1, [4-[3-[(1,1-dimethyl-ethyl)-amino]-propoxy]-phenyl]-(1H-indol-4-yl)-methanone], the IC50 in the data set with caudal artery worked out at 0.46 µM.
As to `CC(C)(C)NCCCOc1ccccc1Cc1cccc2[nH]ccc12` [Example 6, N-(1,1-dimethylethyl)-3-[2-[(1H-indol-4-yl)-methyl]-phenoxy]-propanamine benzoate], the IC50 in the data set on blood-platelets (setting [2]) worked out at 37 µM; in the data set on blood-platelets (setting [3]) it was 14 µM; with caudal artery, 0.4 µM.
On to `O=C(c1ccccc1OCC(O)CNC1CCCCC1)c1cccc2[nH]ccc12` (racemic) [Example 21, (±) [2-[(3-cyclohexylamino)-2-hydroxylpropoxy]-phenyl]-(1H-indol-4-yl) methanone], for which the change in vivo at 5 mg/kg in data set [1] stood at 124%.
`CC(c1ccccc1OCC(O)CNC(C)(C)C)c1cccc2[nH]ccc12` (racemic) [Example 23, (±) 3-[(1,1-dimethylethyl)-amino]-1-[2-[1-(1H-indol-4-yl)-ethyl]-phenoxy]-2-propanol]: the IC50 with blood-platelets (setting [2]) turned out to be 25 µM; in the data set on blood-platelets (setting [3]), 8 µM; in the data set on caudal artery, 4.7 µM. Besides, the change in vivo at 5 mg/kg in data set [1] was found to be 88%.
For `CC(C)(C)NCC(O)COc1ccccc1C(=O)c1cccc2[nH]ccc12` (stereo not drawn) [Example 4, [2-[3-[(1,1-dimethyl ethyl)-amino]-2-hydroxypropoxy]-phenyl]-(1H-indol-4-yl)-methanone], the IC50 came to 55 µM in the data set with blood-platelets (setting [2]), 9.5 µM in the data set with blood-platelets (setting [3]) and 6.2 µM in the data set with caudal artery. Besides, in data set [1], the change in vivo at 5 mg/kg was more than 217%. Further, the change in vivo at 25 mg/kg in data set [1] was 73%.
As for `CC(C)(C)NCC(O)COc1ccccc1C(O)c1cccc2[nH]ccc12` (single isomer, unassigned; isomer b) [Example 9, α-[2-[3-[(1,1-dimethylethyl)-amino]-2-hydroxy-propoxy]-phenyl]-1H-indole-4-methanol benzoate (Isomer B)], the “LD0 (maximum dose which did not cause any deaths over 8 days)” value in the data set with mouse is on record as more than 200 mg/kg. In addition, in data set [1], the change in vivo at 5 mg/kg was more than 165% and the change in vivo at 25 mg/kg was 91%.
Turning to `CC(C)(C)NCC(O)COc1ccccc1C(O)c1cccc2[nH]ccc12` (single isomer, unassigned) [Example 8, α-[2-[3-[(1,1-dimethylethyl)-amino]-2-hydroxy-propoxy]-phenyl]-1H-indole-4-methanol benzoate], the “LD0 (maximum dose which did not cause any deaths over 8 days)” value in the data set with mouse is listed as more than 200 mg/kg.
On to `CC(C)(C)NCCCOc1ccccc1C(=O)c1cccc2[nH]ccc12.O=C(O)c1ccccc1` [Example 3, [2-[3-[(1,1-dimethyl ethyl)-amino]-propoxy]-phenyl]-(1H-indol-4-yl)-methanone benzoate], for which the “LD0 (maximum dose which did not cause any deaths over 8 days)” value with mouse is on record as 100 mg/kg. In addition, the IC50 in the data set with blood-platelets (setting [2]) is 47 µM; with blood-platelets (setting [3]), 31 µM; in the data set on caudal artery, 1.9 µM. Further, the change in vivo at 5 mg/kg in data set [1] was determined as 202%. Also, the change in vivo at 25 mg/kg in data set [1] is 52%.
For the compound `CON=C(c1ccccc1OCC(O)CNC(C)(C)C)c1cccc2[nH]ccc12` (racemic) [Example 25, (±) O-methyloxime of [2-[3-[(2,2-dimethylethyl)-amino]-2-hydroxypropoxy]-phenyl]-(1H-indol-4-yl) methanone], the change in vivo at 5 mg/kg in data set [1] was determined as 186%.
`CC(C)(C)NCC(O)COc1ccccc1Cc1cccc2[nH]ccc12` (stereo not drawn) [Example 5, 1-[(1,1-dimethyl-ethyl)-amino]-3-[2-[(1H-indol-4-yl)-methyl]-phenoxy]-2-propanol]: the “LD0 (maximum dose which did not cause any deaths over 8 days)” value with mouse is more than 200 mg/kg. Also, the IC50 in the data set on blood-platelets (setting [2]) worked out at 42 µM; in the data set with blood-platelets (setting [3]), 18 µM; in the data set on caudal artery it was 2 µM.
Consider `Cn1ccc2c(Cc3ccccc3OCC(O)CNC(C)(C)C)cccc21` (racemic) [Example 11, (±) 1-[(1,1-dimethylethyl)-amino]-3-[2-[(1-methyl-1H-indol-4-yl)-methyl]-phenoxy]-2-propanol], for which the values for the IC50 in the data set on blood-platelets (setting [2]), with blood-platelets (setting [3]) and in the data set on caudal artery were 24 µM, 10 µM and 3 µM, respectively. The change in vivo at 5 mg/kg in data set [1] amounted to 257%. In addition, the change in vivo at 25 mg/kg in data set [1] came out at 81%.
On to `CC(C)(C)NCCCOc1ccccc1C(O)c1cccc2[nH]ccc12` (stereo not drawn) [Example 7, α-[2-[3-[(1,1-dimethylethyl)-amino]-propoxy]-phenyl]-1H-indol-4-methanol benzoate], for which the “LD0 (maximum dose which did not cause any deaths over 8 days)” value with mouse was 100 mg/kg. The change in vivo at 5 mg/kg in data set [1] is more than 201%.
On to `C=C(c1ccccc1OCCCNC(C)(C)C)c1cccc2[nH]ccc12` [Example 24], for which the results for the IC50 in the data set with blood-platelets (setting [2]), with blood-platelets (setting [3]) and in the data set on caudal artery were 14 µM, 8 µM and 3.1 µM, respectively.
`Cn1ccc2c(C(O)c3ccccc3OCCCNC(C)(C)C)cccc21` (racemic) [Example 13, (±) α-[2-[3-[(1,1-dimethylethyl)-amino]-propoxy]-phenyl-1-methyl-1H-indol-4-methanol]: the IC50 turned out to be 70 µM with blood-platelets (setting [2]) and 60 µM in the data set with blood-platelets (setting [3]). In data set [1], the change in vivo at 5 mg/kg came to 140%.
For the compound `C=C(c1ccccc1OCC(O)CNC(C)(C)C)c1cccc2[nH]ccc12` (racemic) [Example 22, (±) 3-[(1,1-dimethylethyl)-amino]-[2-[1-(1H-indol-4-yl)-ethenyl]-phenoxy]-2-propanol], the “LD0 (maximum dose which did not cause any deaths over 8 days)” value with mouse is on record as 200 mg/kg. The IC50 amounted to 14 µM in the data set on blood-platelets (setting [2]), 9 µM with blood-platelets (setting [3]) and 3.8 µM in the data set on caudal artery. Also, the change in vivo at 5 mg/kg in data set [1] was determined as 84%. The change in vivo at 25 mg/kg in data set [1] amounted to 33%.
Regarding `CN1CCN(CC(O)COc2ccccc2C(=O)c2cccc3[nH]ccc23)CC1` (racemic) [Example 19, (±) [2-[2-hydroxy-3-(4-methyl-1-piperazinyl)-propoxy]-phenyl]-(1H-indol-4-yl) methanone], the change in vivo at 5 mg/kg in data set [1] came out at 142%.
In the case of `CC(C)(C)NCC(O)COc1ccccc1C(=O)c1cccc2c1CC(=O)N2` (stereo not drawn) [Example 15, 1,3-dihydro-4-[2-[3-[(1,1-dimethylethyl)-amino]-2-hydroxy-propoxy]-benzoyl]-2H-indol-2-one], the “LD0 (maximum dose which did not cause any deaths over 8 days)” value in the data set on mouse was more than 200 mg/kg.
As to `Cn1ccc2c(C(=O)c3ccccc3OCCCNC(C)(C)C)cccc21` [Example 12, [2-[3-[(1,1-dimethylethyl)-amino]-propoxy]-phenyl]-(1-methyl-1H-indol-4-yl)methanone], the IC50 with blood-platelets (setting [2]) came out at 40 µM; in the data set with blood-platelets (setting [3]), 40 µM; in the data set with caudal artery, 4.8 µM. In addition, the change in vivo at 1 mg/kg in data set [1] turned out to be 99%.
In the case of `Cn1ccc2c(C(=O)c3ccccc3OCC(O)CNC(C)(C)C)cccc21` (racemic) [Example 10, (±)[2-[3-[(1,1-dimethylethyl)-amino]-2-hydroxy-propoxy]-phenyl]-(1-methyl-1H-indol-4-yl) methanone], in the data set on blood-platelets (setting [2]), the IC50 turned out to be 70 µM. The IC50 with blood-platelets (setting [3]) was 21 µM. In data set [1], the change in vivo at 1 mg/kg was 133% and the change in vivo at 25 mg/kg came to 124%.
On to `CC(C)(C)NCC(O)COc1ccc(C(=O)c2cccc3[nH]ccc23)cc1` (stereo not drawn) [Example 2, [4-[3-[(1,1-dimethyl ethyl)-amino]-2-hydroxypropoxy]-phenyl]-(1H-indol-4-yl)-methanone], for which, in data set [1], the change in vivo at 5 mg/kg amounted to 93% and the change in vivo at 25 mg/kg is 82%. Moreover, the IC50 in the data set on caudal artery is 1.9 µM.
